Source: ChEMBL document CHEMBL4715861, “Design, synthesis and biological evaluation of new bivalent quinazoline analogues as IAP antagonists” (Bioorg Med Chem Lett, 2021)
Active and inactive are the calls of the source. The calls are words filed in the database; no cut-off is given here.

Tests used:
MDA-MB-231 [1] = assay: Cytotoxicity against human MDA-MB-231 cells; assay type: functional, cell-based
[2] = Stability in rat microsomes assessed as parent compound remaining at 60 mins; assay type: ADME, Microsome; conditions: read-out: Stabilty
[3] = Stability in mouse microsomes assessed as parent compound remaining at 60 mins; assay type: ADME, Microsome; conditions: read-out: Stabilty
[4] = Stability in dog microsomes assessed as parent compound remaining at 60 mins; assay type: ADME, Canis lupus familiaris, Microsome; conditions: read-out: Stabilty
[5] = Stability in human microsomes assessed as parent compound remaining at 60 mins; assay type: ADME, Microsome; conditions: read-out: Stabilty
MCF7 = assay: Cytotoxicity against human MCF7 cells; assay type: functional, cell-based
Cytochrome P450 3A4 = Cytochrome P450 3A4 (Homo sapiens, UniProt P08684); assay: Inhibition of CYP3A4 (unknown origin); assay type: ADME
Chain of Cytochrome P450 3A4 (P08684 whole entry): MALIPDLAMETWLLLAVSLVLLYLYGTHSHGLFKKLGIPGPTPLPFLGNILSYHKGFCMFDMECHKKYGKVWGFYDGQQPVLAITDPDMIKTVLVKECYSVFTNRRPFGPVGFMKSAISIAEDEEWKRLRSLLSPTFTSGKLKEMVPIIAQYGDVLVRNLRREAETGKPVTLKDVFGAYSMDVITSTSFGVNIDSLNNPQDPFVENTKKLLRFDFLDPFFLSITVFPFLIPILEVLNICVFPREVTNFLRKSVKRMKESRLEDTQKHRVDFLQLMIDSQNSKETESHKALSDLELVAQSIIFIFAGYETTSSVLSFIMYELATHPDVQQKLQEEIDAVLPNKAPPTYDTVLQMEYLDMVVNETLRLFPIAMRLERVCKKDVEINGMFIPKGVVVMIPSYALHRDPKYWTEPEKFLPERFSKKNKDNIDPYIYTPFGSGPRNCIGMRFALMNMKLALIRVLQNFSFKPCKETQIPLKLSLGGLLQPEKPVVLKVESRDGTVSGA

Cytochrome P450 2C9 = Cytochrome P450 2C9 (Homo sapiens, UniProt P11712); assay: Inhibition of CYP2C9 (unknown origin); assay type: ADME
Chain of Cytochrome P450 2C9 (P11712 whole entry): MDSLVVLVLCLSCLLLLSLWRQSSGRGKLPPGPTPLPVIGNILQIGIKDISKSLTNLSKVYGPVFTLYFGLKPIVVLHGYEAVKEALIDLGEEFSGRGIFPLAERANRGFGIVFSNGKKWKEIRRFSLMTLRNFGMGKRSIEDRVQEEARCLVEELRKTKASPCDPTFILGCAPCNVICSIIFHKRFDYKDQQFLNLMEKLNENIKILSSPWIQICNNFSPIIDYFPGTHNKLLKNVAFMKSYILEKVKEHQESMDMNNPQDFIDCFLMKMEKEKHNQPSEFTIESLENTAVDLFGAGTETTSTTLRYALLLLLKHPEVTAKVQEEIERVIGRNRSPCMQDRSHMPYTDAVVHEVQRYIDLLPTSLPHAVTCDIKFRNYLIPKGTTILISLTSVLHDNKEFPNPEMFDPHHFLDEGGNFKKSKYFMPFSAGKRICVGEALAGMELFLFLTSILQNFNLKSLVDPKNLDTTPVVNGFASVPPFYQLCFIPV

MDA-MB-231 [6] = assay: Cytotoxicity against human MDA-MB-231 cells assessed as cell viability at 1 nM (reference value: 98%); assay type: functional; conditions: read-out: Activity
[7] = target: T1, E3 ubiquitin-protein ligase XIAP (Homo sapiens, UniProt P98170); assay: Binding affinity to human XIAP-BIR3 (241 to 356 residues)
T1 sequence (P98170 whole entry, the tested form may be a part): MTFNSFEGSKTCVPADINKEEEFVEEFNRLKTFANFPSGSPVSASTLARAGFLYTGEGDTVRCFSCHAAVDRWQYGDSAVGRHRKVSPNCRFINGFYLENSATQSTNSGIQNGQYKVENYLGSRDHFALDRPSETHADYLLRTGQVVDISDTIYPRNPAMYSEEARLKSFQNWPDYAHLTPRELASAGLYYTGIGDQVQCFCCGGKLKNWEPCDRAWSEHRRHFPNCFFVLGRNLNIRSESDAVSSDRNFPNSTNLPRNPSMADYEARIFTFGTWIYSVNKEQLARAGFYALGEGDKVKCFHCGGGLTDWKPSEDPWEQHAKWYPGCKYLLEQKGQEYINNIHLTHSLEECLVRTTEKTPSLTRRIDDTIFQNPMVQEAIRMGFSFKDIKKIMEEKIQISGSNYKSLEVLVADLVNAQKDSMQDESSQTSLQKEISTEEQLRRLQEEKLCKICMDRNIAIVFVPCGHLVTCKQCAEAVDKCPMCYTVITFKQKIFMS

Cytochrome P450 1A2 = target: T2, Cytochrome P450 1A2 (Homo sapiens, UniProt P05177); assay: Inhibition of CYP1A2 (unknown origin); assay type: ADME
T2 sequence (P05177 whole entry): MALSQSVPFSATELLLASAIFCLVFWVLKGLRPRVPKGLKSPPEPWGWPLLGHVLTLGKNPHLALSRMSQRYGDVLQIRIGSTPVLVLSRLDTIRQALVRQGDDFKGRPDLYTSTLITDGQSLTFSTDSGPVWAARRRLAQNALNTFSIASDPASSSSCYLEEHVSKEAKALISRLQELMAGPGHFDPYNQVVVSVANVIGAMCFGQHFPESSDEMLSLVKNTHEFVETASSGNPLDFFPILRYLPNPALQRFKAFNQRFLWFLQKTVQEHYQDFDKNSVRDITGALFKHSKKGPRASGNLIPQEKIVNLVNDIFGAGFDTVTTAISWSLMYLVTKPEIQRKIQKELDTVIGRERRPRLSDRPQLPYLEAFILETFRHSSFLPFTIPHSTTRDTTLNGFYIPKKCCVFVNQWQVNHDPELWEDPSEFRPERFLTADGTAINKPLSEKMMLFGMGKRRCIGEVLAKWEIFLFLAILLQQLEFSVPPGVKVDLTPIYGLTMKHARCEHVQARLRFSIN

[8] = target: Baculoviral IAP repeat-containing protein 3 (Homo sapiens) (UniProt Q13489); assay: Induction of degradation of cIAP2-BIR3 domain in human MDA-MB-231 cells; assay type: cell-based; conditions: dose 1-5 nM
Chain of Baculoviral IAP repeat-containing protein 3 (Homo sapiens) (Q13489 whole entry, the tested form may be a part): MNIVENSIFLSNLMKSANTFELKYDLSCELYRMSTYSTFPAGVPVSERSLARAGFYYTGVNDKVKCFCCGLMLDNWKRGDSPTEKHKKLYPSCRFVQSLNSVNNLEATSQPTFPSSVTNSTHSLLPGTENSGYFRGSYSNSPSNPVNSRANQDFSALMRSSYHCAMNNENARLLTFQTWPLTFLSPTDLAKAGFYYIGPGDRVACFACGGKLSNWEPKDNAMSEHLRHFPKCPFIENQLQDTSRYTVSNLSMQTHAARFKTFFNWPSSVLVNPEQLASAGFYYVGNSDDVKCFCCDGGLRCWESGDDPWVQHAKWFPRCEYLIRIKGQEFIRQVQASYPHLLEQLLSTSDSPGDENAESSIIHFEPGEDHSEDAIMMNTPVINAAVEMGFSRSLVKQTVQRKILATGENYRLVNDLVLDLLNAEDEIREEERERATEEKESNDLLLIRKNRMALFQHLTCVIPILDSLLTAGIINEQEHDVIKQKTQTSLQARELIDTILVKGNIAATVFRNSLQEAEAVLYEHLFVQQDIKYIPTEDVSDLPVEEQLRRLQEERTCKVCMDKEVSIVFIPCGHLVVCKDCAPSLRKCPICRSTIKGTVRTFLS

MDA-MB-231 [9] = assay: Cytotoxicity against human MDA-MB-231 cells assessed as cell viability at 2 nM (reference value: 98%); assay type: functional; conditions: read-out: Activity
MIA PaCa-2 = assay: Cytotoxicity against human MIA PaCa-2 cells; assay type: functional, cell-based
MDA-MB-468 = assay: Cytotoxicity against human MDA-MB-468 cells; assay type: functional, cell-based
Cytochrome P450 2D6 = Cytochrome P450 2D6 (Homo sapiens, UniProt P10635); assay: Inhibition of CYP2D6 (unknown origin); assay type: ADME
Chain of Cytochrome P450 2D6 (P10635 whole entry): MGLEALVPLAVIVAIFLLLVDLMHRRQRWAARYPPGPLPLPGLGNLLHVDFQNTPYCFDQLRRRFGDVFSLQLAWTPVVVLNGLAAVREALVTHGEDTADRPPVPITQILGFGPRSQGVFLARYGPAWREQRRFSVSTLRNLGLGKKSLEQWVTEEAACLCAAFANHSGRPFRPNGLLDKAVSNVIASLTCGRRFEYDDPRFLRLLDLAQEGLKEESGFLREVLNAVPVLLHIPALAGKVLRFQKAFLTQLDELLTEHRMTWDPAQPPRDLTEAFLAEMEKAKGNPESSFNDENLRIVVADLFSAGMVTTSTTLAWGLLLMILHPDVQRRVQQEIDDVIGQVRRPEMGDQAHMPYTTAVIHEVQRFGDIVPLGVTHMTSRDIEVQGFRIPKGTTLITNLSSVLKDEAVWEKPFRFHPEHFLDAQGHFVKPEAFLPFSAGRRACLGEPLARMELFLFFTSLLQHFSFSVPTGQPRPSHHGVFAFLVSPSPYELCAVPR

MDA-MB-231 [10] = assay: Antitumour activity against in human MDA-MB-231 cells xenografted in mouse assessed as reduction in tumour burdens at 3 mg/kg, iv administered for 14 days and measured after 30 days; assay type: functional, organism-based; conditions: time 14.0 day
[11] = target: Baculoviral IAP repeat-containing protein 2 (Homo sapiens) (UniProt Q13490); assay: Induction of degradation of cIAP1-BIR3 domain in human MDA-MB-231 cells; assay type: cell-based; conditions: dose 1-5 nM
Chain of Baculoviral IAP repeat-containing protein 2 (Homo sapiens) (Q13490 whole entry, the tested form may be a part): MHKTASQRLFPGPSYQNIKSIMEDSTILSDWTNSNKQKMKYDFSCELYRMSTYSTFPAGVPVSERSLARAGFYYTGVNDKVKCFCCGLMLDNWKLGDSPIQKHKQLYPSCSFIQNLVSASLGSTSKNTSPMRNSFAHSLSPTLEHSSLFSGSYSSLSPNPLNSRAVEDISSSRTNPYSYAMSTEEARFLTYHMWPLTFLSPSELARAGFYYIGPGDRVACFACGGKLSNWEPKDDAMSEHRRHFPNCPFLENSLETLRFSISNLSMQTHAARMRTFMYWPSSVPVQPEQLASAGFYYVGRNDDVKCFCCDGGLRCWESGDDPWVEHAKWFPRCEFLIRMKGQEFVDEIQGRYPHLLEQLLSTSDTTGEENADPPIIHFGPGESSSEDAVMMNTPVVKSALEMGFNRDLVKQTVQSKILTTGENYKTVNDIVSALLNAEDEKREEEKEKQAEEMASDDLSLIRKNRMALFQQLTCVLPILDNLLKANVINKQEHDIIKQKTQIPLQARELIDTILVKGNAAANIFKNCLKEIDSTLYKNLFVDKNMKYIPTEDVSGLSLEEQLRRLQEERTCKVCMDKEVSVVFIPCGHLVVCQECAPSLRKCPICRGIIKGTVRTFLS

[12] = target: T1, E3 ubiquitin-protein ligase XIAP; assay: Antagonist activity at XIAP in human MDA-MB-231 cells assessed as fold change in Caspase-3 activation at 1 nM; assay type: cell-based; conditions: filed as antagonist
PANC-1 = assay: Cytotoxicity against human PANC-1 cells; assay type: functional, cell-based
BXPC-3 = assay: Cytotoxicity against human BxPC3 cells; assay type: functional, cell-based
[13] = target: T1, E3 ubiquitin-protein ligase XIAP; assay: Induction of degradation of XIAP-BIR3 domain in human MDA-MB-231 cells; assay type: cell-based; conditions: dose 1-5 nM
OVCAR-3 = assay: Cytotoxicity against human OVCAR-3 cells; assay type: functional, cell-based
J82 = assay: Cytotoxicity against human J82 cells; assay type: functional, cell-based
MDA-MB-231 [14] = assay: Cytotoxicity against human MDA-MB-231 cells assessed as cell viability at 5 nM (reference value: 98%); assay type: functional; conditions: read-out: Activity
[15] = target: T1, E3 ubiquitin-protein ligase XIAP; assay: Antagonist activity at XIAP in human MDA-MB-231 cells assessed as fold change in Caspase-9 activation at 1 nM; assay type: cell-based; conditions: filed as antagonist
HS27 = assay: Cytotoxicity against human HS27 cells; assay type: cell-based
[16] = Toxicity in mouse xenografted with human MDA-MB-231 cells assessed as reduction in weight at 3 mg/kg, iv administered for 14 days and measured after 30 days; assay type: organism-based; conditions: in vivo, 336 h, time 14 day
Cytochrome P450 2C19 = Cytochrome P450 2C19 (Homo sapiens, UniProt P33261); assay: Inhibition of CYP2C19 (unknown origin); assay type: ADME
Chain of Cytochrome P450 2C19 (P33261 whole entry): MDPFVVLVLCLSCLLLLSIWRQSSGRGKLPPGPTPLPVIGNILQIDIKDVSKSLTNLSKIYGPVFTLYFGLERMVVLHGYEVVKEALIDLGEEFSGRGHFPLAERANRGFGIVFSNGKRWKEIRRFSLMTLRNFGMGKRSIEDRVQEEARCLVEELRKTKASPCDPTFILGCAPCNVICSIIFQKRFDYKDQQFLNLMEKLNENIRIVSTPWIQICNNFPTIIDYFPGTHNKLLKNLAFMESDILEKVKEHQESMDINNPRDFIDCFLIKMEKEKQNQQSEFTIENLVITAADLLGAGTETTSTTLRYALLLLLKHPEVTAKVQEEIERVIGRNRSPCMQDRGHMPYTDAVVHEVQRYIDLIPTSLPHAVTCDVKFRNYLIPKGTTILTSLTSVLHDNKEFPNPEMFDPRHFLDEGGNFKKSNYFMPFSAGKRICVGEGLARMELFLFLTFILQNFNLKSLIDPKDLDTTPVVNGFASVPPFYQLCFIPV

[17] = Toxicity in mouse xenografted with human MDA-MB-231 cells assessed as inflammation around injection site at 3 mg/kg, iv after 6 days; assay type: organism-based; conditions: in vivo, 144 h, time 6 day

CN[C@@H](C)C(=O)N[C@H](C(=O)N1CCC[C@H]1C(=O)Nc1cc2c(NCC#CC#CCNc3ncnc4cc(OC)c(NC(=O)[C@@H]5CCCN5C(=O)[C@@H](NC(=O)[C@H](C)NC)C(C)(C)C)cc34)ncnc2cc1OC)C(C)(C)C
IC50 (MDA-MB-231 [1]): 0.3 nM
remaining at 1 h [2]: 87%
remaining at 1 h [3]: 62%
remaining at 1 h [4]: 65%
remaining at 1 h [5]: 64%

CN[C@@H](C)C(=O)N[C@H](C(=O)N1CCC[C@H]1C(=O)Nc1cc2c(N[C@H]3CC[C@H](Nc4ncnc5cc(OC)c(NC(=O)[C@@H]6CCCN6C(=O)[C@@H](NC(=O)[C@H](C)NC)C(C)(C)C)cc45)CC3)ncnc2cc1OC)C(C)(C)C
IC50 (MCF7): 19.2 nM
IC50 (Cytochrome P450 3A4): 3560 nM
IC50 (Cytochrome P450 2C9): 43600 nM
viability at 0.001 µM (MDA-MB-231 [6]): 67%
Ki [7]: 64 nM
IC50 (Cytochrome P450 1A2): > 50000 nM
Activity [8]: Dose-dependent effect
IC50 (MDA-MB-231 [1]): 0.14 nM
viability at 0.002 µM (MDA-MB-231 [9]): 42%
IC50 (MIA PaCa-2): 0.1 nM
IC50 (MDA-MB-468): 27.8 nM
IC50 (Cytochrome P450 2D6; read-out: IC50): > 50000 nM
Activity (MDA-MB-231 [10]): Active
remaining at 1 h [2]: 100%
Activity [11]: Dose-dependent effect
fold change (FC) [12]: 3.4
IC50 (PANC-1): 0.9 nM
IC50 (BXPC-3): 0.2 nM
remaining at 1 h [3]: 94%
Activity [13]: Dose-dependent effect
IC50 (OVCAR-3): 0.2 nM
IC50 (J82): 17.4 nM
viability at 0.005 µM (MDA-MB-231 [14]): 30%
fold change (FC) [15]: 10.7
IC50 (HS27): > 10000 nM
Activity [16]: Non-Toxic
IC50 (Cytochrome P450 2C19): 35700 nM
remaining at 1 h [4]: 63%
remaining at 1 h [5]: 86%

CN[C@@H](C)C(=O)N[C@H](C(=O)N1CCC[C@H]1C(=O)Nc1cc2c(OCC#CC#CCOc3ncnc4cc(OC)c(NC(=O)[C@@H]5CCCN5C(=O)[C@@H](NC(=O)[C@H](C)NC)C(C)(C)C)cc34)ncnc2cc1OC)C(C)(C)C
IC50 (Cytochrome P450 3A4): 240 nM
IC50 (Cytochrome P450 2C9): 12600 nM
IC50 (Cytochrome P450 1A2): > 50000 nM
IC50 (MDA-MB-231 [1]): 0.2 nM
IC50 (Cytochrome P450 2D6): Not Active
IC50 (Cytochrome P450 2C19): > 50000 nM

CN[C@@H](C)C(=O)N[C@H](C(=O)N1CCC[C@H]1C(=O)Nc1cc2c(NC[C@H]3CC[C@H](CNc4ncnc5cc(OC)c(NC(=O)[C@@H]6CCCN6C(=O)[C@@H](NC(=O)[C@H](C)NC)C(C)(C)C)cc45)CC3)ncnc2cc1OC)C(C)(C)C
IC50 (Cytochrome P450 3A4): 460 nM
IC50 (MDA-MB-231 [1]): 0.31 nM

CN[C@@H](C)C(=O)N[C@H](C(=O)N1CCC[C@H]1C(=O)Nc1cc2c(NC[C@H]3CC[C@@H](CNc4ncnc5cc(OC)c(NC(=O)[C@@H]6CCCN6C(=O)[C@@H](NC(=O)[C@H](C)NC)C(C)(C)C)cc45)CC3)ncnc2cc1OC)C(C)(C)C
IC50 (Cytochrome P450 3A4): < 620 nM
IC50 (MDA-MB-231 [1]): 0.41 nM

CN[C@@H](C)C(=O)N[C@H](C(=O)N1CCC[C@H]1C(=O)Nc1cc2c(NCc3ccc(CNc4ncnc5cc(OC)c(NC(=O)[C@@H]6CCCN6C(=O)[C@@H](NC(=O)[C@H](C)NC)C(C)(C)C)cc45)cc3)ncnc2cc1OC)C(C)(C)C
IC50 (MDA-MB-231 [1]): 4.3 nM

CN[C@@H](C)C(=O)N[C@H](C(=O)N1CCC[C@H]1C(=O)Nc1cc2c(N3CCN(c4ncnc5cc(OC)c(NC(=O)[C@@H]6CCCN6C(=O)[C@@H](NC(=O)[C@H](C)NC)C(C)(C)C)cc45)CC3)ncnc2cc1OC)C(C)(C)C
IC50 (MDA-MB-231 [1]): 2.3 nM

CN[C@@H](C)C(=O)N[C@H](C(=O)N1CCC[C@H]1C(=O)Nc1cc2c(N[C@H]3CC[C@@H](Nc4ncnc5cc(OC)c(NC(=O)[C@@H]6CCCN6C(=O)[C@@H](NC(=O)[C@H](C)NC)C(C)(C)C)cc45)CC3)ncnc2cc1OC)C(C)(C)C
IC50 (Cytochrome P450 3A4): 5530 nM
IC50 (MDA-MB-231 [1]): 5.93 nM

CN[C@@H](C)C(=O)N[C@H](C(=O)N1CCC[C@H]1C(=O)Nc1cc2c(OCC#CCOc3ncnc4cc(OC)c(NC(=O)[C@@H]5CCCN5C(=O)[C@@H](NC(=O)[C@H](C)NC)C(C)(C)C)cc34)ncnc2cc1OC)C(C)(C)C
IC50 (Cytochrome P450 3A4): 860 nM
IC50 (MDA-MB-231 [1]): 0.4 nM

CN[C@@H](C)C(=O)N[C@H](C(=O)N1CCC[C@H]1C(=O)N(CCc1ccccc1)C(=O)C(F)(F)F)[C@H](C)OCC#CC#CCO[C@H](C)[C@H](NC(=O)[C@H](C)NC)C(=O)N1CCC[C@H]1C(=O)N(CCc1ccccc1)C(=O)C(F)(F)F
Activity [17]: Toxic

CN[C@@H](C)C(=O)N[C@H](C(=O)N1CCC[C@H]1C(=O)Nc1cc2c(NCCOCCOCCNc3ncnc4cc(OC)c(NC(=O)[C@@H]5CCCN5C(=O)[C@@H](NC(=O)[C@H](C)NC)C(C)(C)C)cc34)ncnc2cc1OC)C(C)(C)C
IC50 (Cytochrome P450 3A4): 5650 nM
IC50 (MDA-MB-231 [1]): 5.04 nM

CN[C@@H](C)C(=O)N[C@H](C(=O)N1CCC[C@H]1C(=O)Nc1cc2c(NCCCCCCCCNc3ncnc4cc(OC)c(NC(=O)[C@@H]5CCCN5C(=O)[C@@H](NC(=O)[C@H](C)NC)C(C)(C)C)cc34)ncnc2cc1OC)C(C)(C)C
IC50 (Cytochrome P450 3A4): 430 nM
IC50 (MDA-MB-231 [1]): 0.3 nM

CN[C@@H](C)C(=O)N[C@H](C(=O)N1CCC[C@H]1C(=O)Nc1cc2c(Nc3ccc(OCC#CC#CCOc4ccc(Nc5ncnc6cc(OC)c(NC(=O)[C@@H]7CCCN7C(=O)[C@@H](NC(=O)[C@H](C)NC)C(C)(C)C)cc56)cn4)nc3)ncnc2cc1OC)C(C)(C)C
IC50 (MDA-MB-231 [1]): 34.6 nM

CN[C@@H](C)C(=O)N[C@H](C(=O)N1CCC[C@H]1C(=O)Nc1cc2c(NC[C@H]3CC[C@H](CNc4ncnc5cc(OC)c(NC(=O)[C@@H]6CCCN6C(=O)[C@@H](NC(=O)[C@H](C)NC)C6CCCCC6)cc45)CC3)ncnc2cc1OC)C1CCCCC1
IC50 (Cytochrome P450 3A4): 660 nM
IC50 (MDA-MB-231 [1]): 1.03 nM
